How the values were obtained:
Type in all cases: cell-based, SARS-CoV-2
[1] = system: pseudovirus with Delta S protein mutations
[2] = system: pseudoviruses with omicron S protein mutations
[3] = system: pseudovirus with alpha, beta or gamma S protein mutations
[4] = system: pseudovirus with S protein D614G, E484K, UK, SA, BZ variants

C[C@H]1O[C@H](O[C@H]2[C@H](O)[C@@H](O)[C@@H](O)[C@H](O)[C@@H]2O)[C@@H](N)C[C@@H]1NC(=N)C(=O)O [Kasugamycin, 2-amino-2-[(2R,3S,5S,6R)-5-amino-2-methyl-6-[(2R,3S,5S,6S)-2,3,4,5,6-pentahydroxycyclohexyl]oxyoxan-3-yl]iminoacetic acid]
CHI3L1-stimulated pseudovirus uptake [1]: abrogated | pseudovirus uptake when exogenous CHI3L1 was not administered [1]: diminished | epithelial cell uptake of pseudoviruses [2]: inhibited | rCHI3L1 stimulatory effects on pseudovirus uptake [3]: markedly decreased | uptake of pseudovirus in cells treated with and without rCHI3L1 [3]: markedly diminished

rhCHI3L1: recombinant human CHI3L1 (chitinase 3 like 1) protein, from R&D Inc. or generated at Brown University
uptake of pseudovirus [1]: potent stimulator | uptake of pseudoviruses [2]: potent stimulator | cellular integration of Spike proteins [4]: stimulated

B1: FRG: murine monoclonal anti-CHI3L1 antibody raised against amino acid 223-234 of human CHI3L1; heavy chain SEQ ID NO: 13, light chain SEQ ID NO: 14 (antibody, V domains shown)
VH: QIQLVQSGPELKKPGETVKISCKASGYTFTNYGMNWVKQAPGKGLKWMGWINTYTGEPTYADDFKGRFAFSLETSASTAYLQINNLRNEDMSTYFCARLGYGKFYVMDYWGQGTSVTVSS
VL: DVVMTQTPLSLPVSLGDQASISCRSSQSLVHSNGNTYLHWYLQKPGQSPKLLIYKVSNRFSGVPDRFSGSGSGTDFTLKISRVEAEDLGVYFCSQSTHVTWTFGGGTKLEIK
CHI3L1-stimulated pseudovirus uptake [1]: abrogated | pseudovirus uptake when exogenous CHI3L1 was not administered [1]: diminished | epithelial cell uptake of pseudoviruses [2]: inhibited | uptake of pseudovirus in cells treated with and without rCHI3L1 [3]: markedly diminished | uptake of pseudoviruses in cells treated with and without rCHI3L1 [3]: markedly diminished

Reference: patent publication US20230312752A1 (Brown University, priority 2021, published 2023)
